# Results published in US20080153796A1, “Promotion of wound contraction” (RENOVO LIMITED, priority 2006, published 2008).
# Key:
# [1] = test system: full thickness cutaneous excisional wounds (punch biopsies); assay: Wound width three days after punch biopsies in human volunteers (histological assessment); assay type: in vivo; conditions: day 3; for average wound width: single intradermal injection 10-30 min before 3 mm punch biopsy
# Source text: A single site, double-blind study was undertaken to illustrate the efficacy of medicaments of the invention in promoting contraction of punch biopsy wounds in healthy male and post-menopausal female subjects. The control treatments used in this study were Placebo (vehicle) and Standard Care (moist wound healing dressings).
# 44 healthy subjects were recruited to the study, of whom, 40 were healthy males (aged 18-75years) and 4 were post-menopausal females (aged 53-69 years). The average age of subjects recruited to this study was 42 years. The post-menopausal status of female subjects was confirmed by quantification of serum levels of estradiol and follicle stimulating hormone (FSH). Serum levels of estradiol were required to be <90 pmol/L, and follicle stimulating hormone levels >31 IU/L.
# Before wounding, each subject received either a medicament of the invention (providing a 100 μl intradermal injection of a solution comprising 400 ng of 17β-oestradiol in a diluent comprising PBS and 5% v/v ethanol), or a control medicament (two used, providing a 100 μl intradermal injection of a solution comprising either 20 ng or 100 ng respectively of 17β-oestradiol in a diluent comprising PBS and 5% v/v ethanol). The experimental medicaments (either of the invention or control) were administered intradermally as a single dose at a volume of 100 μl per wound site, 10-30 minutes before wounding to sites on the upper, inner aspect of the arm. This administration was sufficient to prophylactically “prime” an area of 1 cm^2 of unwounded skin prior to wounding. Wounds were made with a 3 mm punch biopsy.
# Biopsy sites were excised, using a 5 mm punch biopsy, three days after wounding. Excised wounds were preserved for histological assessment of wound width. All histological assessments were made using preserved 5 micron-thickness wound sections taken from the widest part of each excised biopsy site. Sections were stained with Haematoxylin and Eosin to aid visualisation of structural features, and measurements made using image analysis software. The wound diameter is the linear total wound diameter of the wound section measured in micrometres. The average wound diameter value was calculated from the 44 wounds of each treatment group.
# [2] = 100 μg of oestradiol applied in a gel; six hours from application; cited from earlier work
# [3] = matrix of U.S. Pat. No. 5,252,334, without drug delivery rate enhancers; cited from earlier work
smiles,measurement,setting,value
C[C@]12CC[C@@H]3c4ccc(O)cc4CC[C@H]3[C@@H]1CC[C@@H]2O [17β-oestradiol],average wound width,"[1]; 20 ng 17β-oestradiol in 100 μl PBS/5% v/v ethanol, control medicament",2626 μm
same,average wound width,"[1]; 100 ng 17β-oestradiol in 100 μl PBS/5% v/v ethanol, control medicament",2612 μm
same,average wound width,"[1]; 400 ng 17β-oestradiol in 100 μl PBS/5% v/v ethanol, medicament of the invention",2480 μm
same,wound width compared to control treated or untreated wounds,"[1]; 400 ng 17β-oestradiol, intradermal",significantly decreased
same,amount of applied oestradiol found in the skin or having passed through the skin,[2],15.7 µg
same,rate of administration per hour per square centimetre of skin,[3],approximately 0.2 μg
